The results in this text go back to patent US6479531B1, “Gastrin and cholecystokinin receptor ligands” (James Black Foundation Limited, priority 1998, dated 2002).

Counter-ions that a name gives are not always drawn.

Experiment [1] deals with T1, gastrin receptor (Rattus norvegicus, UniProt P30553).
T1 construct: The stomach was excised and flushed with ca. 1 ml of unbuffered physiological saline solution; from tissue; host or cells: isolated whole stomach of immature rats (ca. 21 days old)
T1 sequence (P30553 1-452): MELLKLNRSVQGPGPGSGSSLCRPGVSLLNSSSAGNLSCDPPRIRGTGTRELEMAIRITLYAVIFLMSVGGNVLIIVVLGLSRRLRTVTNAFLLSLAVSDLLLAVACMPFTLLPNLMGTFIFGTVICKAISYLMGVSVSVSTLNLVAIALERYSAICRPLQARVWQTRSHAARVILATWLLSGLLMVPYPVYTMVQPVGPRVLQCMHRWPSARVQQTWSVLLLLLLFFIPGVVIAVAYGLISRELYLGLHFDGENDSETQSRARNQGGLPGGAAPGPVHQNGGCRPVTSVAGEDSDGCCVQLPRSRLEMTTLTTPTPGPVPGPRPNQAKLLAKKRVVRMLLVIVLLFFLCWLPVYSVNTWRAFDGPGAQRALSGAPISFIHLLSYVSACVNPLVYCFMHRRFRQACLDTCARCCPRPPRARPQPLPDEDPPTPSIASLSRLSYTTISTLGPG
Description: gastrin antagonist activity in immature rat stomach assay (pentagastrin dose-response, acid secretion). The settings on record: isolated immature rat stomach, cumulative pentagastrin dose-response curves; for Kb: read-out: Gastrin pKb (converted). In short, it runs like this: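 Isolated, lumen-perfused stomach from immature rats (33-50 g, ca. 21 days) in a 37° organ bath with 3×10^−8 M 5-methylfurmethide, gassed 95% O2/5% CO2. Compound added serosally after 120 min stabilisation; cumulative pentagastrin dose-response curves begun 60 min later, acid secretion followed by perfusate pH.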

Experiment [2] concerns the target T2, CCKB receptor (Mus musculus, UniProt P56481).
T2 construct: The whole brains from male mice (CD1 22-25 g; Charles River) were removed; from tissue; host or cells: cerebral cortex membranes of male CD1 mice
T2 sequence (P56481 1-453): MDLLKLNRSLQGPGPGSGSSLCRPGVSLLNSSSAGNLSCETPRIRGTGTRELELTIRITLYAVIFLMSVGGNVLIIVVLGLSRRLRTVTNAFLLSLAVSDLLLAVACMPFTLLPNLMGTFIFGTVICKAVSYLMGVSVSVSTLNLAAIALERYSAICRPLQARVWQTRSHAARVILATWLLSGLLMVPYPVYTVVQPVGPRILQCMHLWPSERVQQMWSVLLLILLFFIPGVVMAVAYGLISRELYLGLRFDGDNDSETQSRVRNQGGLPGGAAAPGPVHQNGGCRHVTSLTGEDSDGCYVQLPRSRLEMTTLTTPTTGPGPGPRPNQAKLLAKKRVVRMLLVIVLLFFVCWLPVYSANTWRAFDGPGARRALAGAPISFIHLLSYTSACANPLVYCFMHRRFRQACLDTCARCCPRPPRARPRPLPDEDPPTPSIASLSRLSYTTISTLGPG
Description: CCKB receptor radioligand binding assay in mouse cortical membranes. The settings on record: [125I]-CCK8(S) 200 pM, 150 min at 21±3°; for Ki: read-out: CCKB pKi (converted). In short, it runs like this:
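Bound radioactivity was gamma-counted after rapid GF/B filtration and cold 50 mM Tris-HCl (pH 7.4) washes. The tissue was cerebral cortex from male CD1 mice, prepared as twice-centrifuged membranes in pH 7.2 HEPES/NaCl/KCl/MgCl2/EDTA buffer with bacitracin at 20 mg/ml original wet weight.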

For the compound `O=C(O)c1cccc(NC(=O)c2nc(C3CCCCC3)[nH]c2CCC2CCCCCC2)c1` [Example 166, 3-{[5-(2-Cycloheptyl-ethyl)-2-cyclohexyl-1H-imidazole-4-carbonyl]-amino}-benzoic Acid], the Kb in experiment [1] is 12.9 nM. The Ki in experiment [2] is 135 nM.
Take `Cc1ccc(NC(=O)c2nc(C3CCCCC3)[nH]c2CCC2CCCCCC2)cc1C(=O)O` [Example 167, 5-{[5-(2-Cycloheptyl-ethyl)-2-cyclohexyl-1H-imidazole-4-carbonyl]-amino}-2-methyl-benzoic Acid]: in experiment [1], the Kb is 13.8 nM. In addition, the Ki in experiment [2] is 28.2 nM.
In the same order, the values of `Cc1ccccc1-c1nc(C(=O)Nc2cccc(CCC(=O)O)c2)c(CCC23CC4CC(CC(C4)C2)C3)[nH]1` [Example 97, 3-(3-{[5-(2-Adamantan-1-yl-ethyl)-2-o-tolyl-1H-imidazole-4-carbonyl]-amino}-phenyl)-propionic Acid Trifluoroacetic Acid Salt] are 501 nM and 6.76 nM.
Consider `Cc1ccc(-c2nc(C(=O)Nc3ccc(C)c(C(=O)O)c3)c(CCC34CC5CC(CC(C5)C3)C4)[nH]2)c(C)c1` [Example 151, 5-{[5-(2-Adamantan-1-yl-ethyl)-2-(2,4-dimethyl-phenyl)-1H-imidazole-4-carbonyl]-amino}-2-methyl-benzoic Acid], for which, in experiment [1], the Kb is 21.9 nM. The Ki in experiment [2] was 6.31 nM.
As for `CCCC(CCC)c1nc(C(=O)Nc2ccc(C)c(C(=O)O)c2)c(CCC23CC4CC(CC(C4)C2)C3)[nH]1` [Example 126, 5-{[5-(2-Adamantan-1-yl-ethyl)-2-(1-propyl-butyl)-1H-imidazole-4-carbonyl]-amino}-2-methyl-benzoic Acid], the Kb in experiment [1] is 15.8 nM. Moreover, the Ki in experiment [2] was 21.9 nM.
Consider `CC1(C)C2CC=C(c3nc(C(=O)Nc4cccc(C(=O)O)c4)c(CCC45CC6CC(CC(C6)C4)C5)[nH]3)C1C2` (centres unmarked) [Example 192, 3-{[5-(2-Adamantan-1-yl-ethyl)-2-(6,6-dimethyl-bicyclo[3.1.1]hept-2-en-2-yl)-1H-imidazole-4-carbonyl]-amino}-benzoic Acid], for which the Kb in experiment [1] was 141 nM. For the same compound, in experiment [2], the Ki is 66.1 nM.
Turning to `CC1(c2nc(C(=O)Nc3cccc(C(=O)O)c3)c(CCC34CC5CC(CC(C5)C3)C4)[nH]2)CCCCC1` [Example 199, 3-{[5-(2-Adamantan-1-yl-ethyl)-2-(1-methyl-cyclohexyl)-1H-imidazole-4-carbonyl]-amino}-benzoic Acid], in experiment [1], the Kb is 1.62 nM. Further, the Ki in experiment [2] was 17.8 nM.
In the case of `CC(C)c1nc(C(=O)Nc2cccc(C(=O)O)c2)c(CCC23CC4CC(CC(C4)C2)C3)[nH]1` [Example 78, 3-{[5-(2-Adamantan-1-yl-ethyl)-2-isopropyl-1H-imidazole-4-carbonyl]-amino}-benzoic Acid], the Kb in experiment [1] is 20.9 nM. Besides, in experiment [2], the Ki is 186 nM.
In the case of `CN(C)c1ccc(-c2nc(C(=O)Nc3cccc(C(=O)O)c3)c(CCC34CC5CC(CC(C5)C3)C4)[nH]2)cc1` [Example 72, 3-{[5-(2-Adamantan-1-yl-ethyl)-2-(4-dimethylamino-phenyl)-1H-imidazole-4-carbonyl]-amino}-benzoic Acid], in experiment [1], the Kb is 1230 nM. The Ki in experiment [2] is 295 nM.
For `CCc1ccccc1-c1nc(C(=O)Nc2ccc(C)c(C(=O)O)c2)c(CCC23CC4CC(CC(C4)C2)C3)[nH]1` [Example 159, 5-{[5-(2-Adamantan-1-yl-ethyl)-2-(2-ethyl-phenyl)-1H-imidazole-4-carbonyl]-amino}-2-methyl-benzoic Acid], the Kb in experiment [1] was 316 nM. Also, the Ki in experiment [2] was 12.3 nM.
As for `O=C(O)c1cccc(NC(=O)c2nc(C3CC=CCC3)[nH]c2CCC23CC4CC(CC(C4)C2)C3)c1` (centres unmarked) [Example 195, 3-{[5-(2-Adamantan-1-yl-ethyl)-2-cyclohex-3-enyl-1H-imidazole-4-carbonyl]-amino}-benzoic Acid], in experiment [1], the Kb is 6.61 nM. In addition, the Ki in experiment [2] is 42.7 nM.
Regarding `CC(C)CN1CCC[C@@H]1c1nc(C(=O)Nc2cccc(C(=O)O)c2)c(CCC23CC4CC(CC(C4)C2)C3)[nH]1` [Example 144, (R)-3-{[5-(2-Adamantan-1-yl-ethyl)-2-[1-(2-methyl-propyl)-pyrrolidin-2-yl]-1H-imidazole-4-carbonyl]-amino}-benzoic Acid], the Kb in experiment [1] was 14.1 nM. The Ki in experiment [2] was 437 nM.
Regarding `CC1(C)C2CCC(c3nc(C(=O)Nc4cccc(C(=O)O)c4)c(CCC45CC6CC(CC(C6)C4)C5)[nH]3)C1C2` (centres unmarked) [Example 190, 3-{[5-(2-Adamantan-1-yl-ethyl)-2-(6,6-dimethyl-bicyclo[3.1.1]hept-2-yl)-1H-imidazole-4-carbonyl]-amino}-benzoic Acid], the Kb in experiment [1] was 4.17 nM. The Ki in experiment [2] was 174 nM.
Regarding `O=C(O)c1cccc(NC(=O)c2nc(-c3ccc(O)cc3)[nH]c2CCC23CC4CC(CC(C4)C2)C3)c1` [Example 63, 3-{[5-(2-Adamantan-1-yl-ethyl)-2(4-hydroxy-phenyl)-1H-imidazole-4-carbonyl]-amino}-benzoic Acid], in experiment [1], the Kb was 1620 nM. In addition, the Ki in experiment [2] is 1100 nM.
As to `Cc1ccccc1-c1nc(C(=O)Nc2cccc(C(=O)O)c2)c(CCC23CC4CC(CC(C4)C2)C3)[nH]1` [Example 57, 3-{[5-(2-Adamantan-1-yl-ethyl)-2-o-tolyl-1H-imidazole-4-carbonyl]-amino}-benzoic Acid], in experiment [1], the Kb is 58.9 nM. In addition, in experiment [2], the Ki was 120 nM.
As for `Cc1ccc(NC(=O)c2nc(C3CCCCC3)[nH]c2CCC23CC4CC(CC(C4)C2)C3)cc1C(=O)O` [Example 135, 5-{[5-(2-Adamantan-1-yl-ethyl)-2-cyclohexyl-1H-imidazole-4-carbonyl]-amino}-2-methyl-benzoic Acid], in experiment [1], the Kb is 22.4 nM. Moreover, the Ki in experiment [2] was 6.17 nM.
As to “5-[(2-Cycloheptylmethyl--phenyl-1H-pyrrole-3-carbonyl)-amino]-isophthalic Acid [Example 13]”, in experiment [1], the “Gastrin pKb” value amounted to 6.21. Also, the “CCKB pKi” value in experiment [2] stood at 6.44.
In the case of `Cc1ccc(NC(=O)c2nc([C@@H]3CCCN3C)[nH]c2CCC23CC4CC(CC(C4)C2)C3)cc1C(=O)O` [Example 138, (S)-5-{[5-(2-Adamantan-1-yl-ethyl)-2-(1-methyl-pyrrolidin-2-yl)-1H-imidazole-4-carbonyl]-amino}-2-methyl-benzoic Acid], in experiment [1], the Kb was 25.7 nM. For the same compound, the Ki in experiment [2] was 50.1 nM.
Taken in the same sequence, the figures for `Cc1cc(F)ccc1-c1nc(C(=O)Nc2cccc(C(=O)O)c2)c(CCC23CC4CC(CC(C4)C2)C3)[nH]1` [Example 96, 3-{[5-(2-Adamantan-1-yl-ethyl)-2-(4-fluoro-2-methyl-phenyl)-1H-imidazole-4-carbonyl]-amino}-benzoic Acid] were 12.3 nM and 166 nM.
In the same order, the values of `O=C(O)c1cccc(NC(=O)c2nc(-c3ccccn3)[nH]c2CCC23CC4CC(CC(C4)C2)C3)c1` [Example 178, 3-{[5-(2-Adamantan-1-yl-ethyl)-2-pyridine-2-yl-1H-imidazole-4-carbonyl]-amino}-benzoic Acid] are 166 nM and 245 nM.
In the case of `Cc1ccc(NC(=O)c2nc(C3CC4CCC3C4)[nH]c2CCC23CC4CC(CC(C4)C2)C3)cc1C(=O)O` (racemic) [Example 209, (±)-endo-5-{[5-(2-Adamantan-1-yl-ethyl)-2-bicyclo[2.2.1]hept-2-yl-1H-imidazole-4-carbonyl]-amino}-2-methyl-benzoic Acid], the Kb in experiment [1] was 1.1 nM. For the same compound, in experiment [2], the Ki was 2.09 nM.
Turning to `O=C(O)c1cc(NC(=O)c2[nH]c(-c3ccccc3)nc2CCC23CC4CC(CC(C4)C2)C3)cc(C(=O)O)c1` [Example 46, 5-{[5-(2-Adamantan-1-yl-ethyl)-2-phenyl-1H-imidazole-4-carbonyl]-amino}-isophthalic Acid], in experiment [1], the Kb was 2510 nM. The Ki in experiment [2] was 646 nM.
